Consider three compounds from publication PMC8892251, “An Enhanced Hybrid Screening Approach to Identify Potent Inhibitors for the SARS-CoV-2 Main Protease From the NCI Compound Library” (Frontiers in Chemistry, 2022).

“And” between values parts separate entries of the source, which are not always exact repeats. Equal entries are not always repeated. Where two headings read alike, the source gives them in different places.

Assay [1] concerns the target PLpro (Severe acute respiratory syndrome coronavirus 2, UniProt P0DTD1). The assay can be described thus: IC50 test against PLpro (selectivity check for quinones). The format is biochemical, SARS-CoV-2. The conditions noted are these: Supplementary Figure S4; for specificity of Mpro inhibition: conclusion from PLpro counter-test; for selectivity Mpro versus PLpro: quinones tested on PLpro.

Assay [2] deals with SARS-CoV-2 Mpro (Severe acute respiratory syndrome coronavirus 2, UniProt P0DTD1). The assay can be described thus: biochemical.

Usually IC50 stands for the concentration needed to halve the response being measured. In the case of `CC1=C(N=[N+]=[N-])C(=O)C(C)=C(N=[N+]=[N-])C1=O` [Compound 88], in assay [1], the “specificity of Mpro inhibition” value is on record as “specifically inhibit the activity of Mpro” and the “selectivity Mpro versus PLpro” value is listed as “more selective on Mpro than PLpro”. In assay [2] (IC50), the IC50 amounted to 0.723 µM.

With `O=C1C=CC(=O)c2c1ncc1c2nc2sccn21` [Compound 110], in assay [1], the “specificity of Mpro inhibition” value is listed as “specifically inhibit the activity of Mpro” and the “selectivity Mpro versus PLpro” value is “more selective on Mpro than PLpro”. In assay [2] (Mpro, Figure 5, triplicate experiments, read-out: IC50), the half-inhibitory concentration (IC50) stood at 0.705 µM. In addition, the IC50 in assay [2] (Mpro, read-out: IC50) worked out at 0.705 µM.

`O=C1C=C/C(=N\c2nc3c4ccccc4c4ccccc4c3[nH]2)c2ccccc21` [Compound 112]: in assay [1], the “selectivity Mpro versus PLpro” value is reported as “more selective on Mpro than PLpro”. Further, the 50% inhibitory concentration (IC50) in assay [2] (IC50) is 1.69 µM and 1.7 µM.
